The text below walks through data of PubChem BioAssay AID200 (DTP/NCI, 2004).

The assay deals with B6C3F1 mice, B16 melanoma ip, median survival T/C. In words: NCI In Vivo Anticancer Drug Screen. Data for tumor model B16 Melanoma (intraperitoneal) in B6C3F1 mice. The note with it: endpoint: median survival time, schedule: Q01DX009 (ip), higher = longer survival. The method in brief: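 Transplantable tumor in mice; treated vs vehicle control groups; survival or tumor size measured; value = T/C ratio.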

Setting [1] is: dose: 6.25 mg/kg/injection, vehicle: saline with Tween-80.
The mark [2] stands for this setting: dose: 50.0 mg/kg/injection, vehicle: saline with Tween-80.
[3] abbreviates: dose: 100.0 mg/kg/injection, vehicle: saline with Tween-80.
Setting [4] is: dose: 200.0 mg/kg/injection, vehicle: saline with Tween-80.
[5] abbreviates: dose: 400.0 mg/kg/injection, vehicle: saline with Tween-80.
Setting [6] is: dose: 12.5 mg/kg/injection, vehicle: saline.
Where [7] appears, read: dose: 25.0 mg/kg/injection, vehicle: saline.
Where [8] appears, read: dose: 50.0 mg/kg/injection, vehicle: saline.
Setting [9] is: dose: 100.0 mg/kg/injection, vehicle: suspension in saline.

SMILES strings stand for the structures. Where “and” joins values, the source holds several entries; their conditions need not be identical. Equal values may be shown once. Inconclusive results and toxic doses are left out.

Turning to `CCC(CC)COC(=O)c1ccccc1C(=O)OCC(CC)CC`, the T/C was 98 % of control (dose: 3.12 mg/kg/injection, vehicle: saline with Tween-80); 97 % of control and 106 % of control under setting [1]; 110 % of control and 90 % of control and 107 % of control (dose: 12.5 mg/kg/injection, vehicle: saline with Tween-80); 91 % of control and 96 % of control and 103 % of control (dose: 25.0 mg/kg/injection, vehicle: saline with Tween-80); 89 % of control and 96 % of control and 97 % of control under setting [2]; 93 % of control and 97 % of control under setting [3]. The T/C is 106 % of control under setting [4] and 104 % of control under setting [5].

`C[CH2][Sn]([CH2]C)([O]S(C)(=O)=O)[O]S(C)(=O)=O`: the T/C is, setting by setting: (dose: 0.78 mg/kg/injection, vehicle: saline) 92 % of control; (dose: 0.79 mg/kg/injection, vehicle: saline) 102 % of control; (dose: 1.56 mg/kg/injection, vehicle: saline) 98 % of control and 103 % of control; (dose: 3.12 mg/kg/injection, vehicle: saline) 97 % of control and 103 % of control; (dose: 6.25 mg/kg/injection, vehicle: saline) 108 % of control and 96 % of control; under setting [6], 91 % of control and 99 % of control.

Regarding `C=C(C)C12OC3(CCCCCCCCC)OC1C1C4OC4(COC(=O)CCCCCCCCCCCCCCC)C(O)C4(O)C(=O)C(C)=CC4C1(O3)C(C)C2OC(=O)c1ccccc1` (stereo unspecified), the T/C by setting is: (dose: 5.0 micrograms/kg/injection, vehicle: saline + alcohol) 96 % of control; (dose: 10.0 micrograms/kg/injection, vehicle: saline + alcohol) 99 % of control; (dose: 20.0 micrograms/kg/injection, vehicle: saline + alcohol) 86 % of control; (dose: 40.0 micrograms/kg/injection, vehicle: saline + alcohol) 88 % of control.

Regarding `CCN(CC)CCOCCO`, the T/C (dose: 12.0 mg/kg/injection, vehicle: saline) was 105 % of control; the T/C under setting [7] was 116 % of control; the T/C under setting [8] was 98 % of control; the T/C (dose: 100.0 mg/kg/injection, vehicle: saline) is 90 % of control.

On to `CC(=O)c1ccc([NH-])c([NH-])c1.[Cl][Pt+2][Cl]`, for which the T/C is 116 % of control (dose: 2.5 mg/kg/injection, vehicle: distilled water + Tween-80); 116 % of control (dose: 5.0 mg/kg/injection, vehicle: distilled water + Tween-80); 114 % of control and 124 % of control (dose: 10.0 mg/kg/injection, vehicle: distilled water + Tween-80); 114 % of control (dose: 20.0 mg/kg/injection, vehicle: distilled water + Tween-80); 119 % of control (dose: 40.0 mg/kg/injection, vehicle: distilled water + Tween-80).

Take `CCCCCn1c(C)cc(/C=C\c2ccc3cc(C)ccc3[n+]2C)c1C`: the T/C by setting is: (dose: 39.0 micrograms/kg/injection, vehicle: Klucel (hydroxypropylcellulose) (HPC)) 93 % of control; (dose: 78.0 micrograms/kg/injection, vehicle: Klucel (hydroxypropylcellulose) (HPC)) 95 % of control; (dose: 156.0 micrograms/kg/injection, vehicle: Klucel (hydroxypropylcellulose) (HPC)) 100 % of control; (dose: 312.0 micrograms/kg/injection, vehicle: Klucel (hydroxypropylcellulose) (HPC)) 100 % of control; (dose: 625.0 micrograms/kg/injection, vehicle: Klucel (hydroxypropylcellulose) (HPC)) 96 % of control.

For `CN(C)CSCN(C)C`, the T/C by setting is: (dose: 1.56 mg/kg/injection, vehicle: saline with Tween-80) 97 % of control; (dose: 3.13 mg/kg/injection, vehicle: saline with Tween-80) 89 % of control; under setting [1], 101 % of control.

Regarding `COC(=O)[C@@]12OC[C@]34[C@H]([C@@H](O)[C@@H]1O)[C@@]1(C)CC(=O)C(OC(=O)CC(=O)OC5=C(C)[C@@H]6C[C@H]7OC(=O)[C@H](OC(=O)/C=C(\C)C(C)C)[C@H]8[C@]9(C(=O)OC)OC[C@]78[C@H]([C@@H](O)[C@@H]9O)[C@@]6(C)CC5=O)=C(C)[C@@H]1C[C@H]3OC(=O)[C@H](OC(=O)/C=C(\C)C(C)C)[C@@H]24`, the T/C (dose: 1.5 mg/kg/injection, vehicle: saline + Tween-80 + alcohol) was 154 % of control.

For `CCCCCCCCCCCCO[P+](=O)OCCCCCCCCCCCC`, the T/C reads like this: under setting [2], 94 % of control; under setting [3], 96 % of control.

In the case of `O=C1N(CC2CO2)CCN1CC1CO1` (stereo unspecified), the T/C under setting [6] is 117 % of control and 97 % of control; the T/C (dose: 12.5 mg/kg/injection, vehicle: suspension in saline) was 114 % of control; the T/C under setting [7] was 118 % of control and 107 % of control; the T/C (dose: 25.0 mg/kg/injection, vehicle: suspension in saline) was 124 % of control; the T/C under setting [8] was 115 % of control; the T/C (dose: 50.0 mg/kg/injection, vehicle: suspension in saline) is 165 % of control. Also, the T/C reads like this: under setting [9], 90 % of control; (dose: 200.0 mg/kg/injection, vehicle: saline) 122 % of control.

As to `c1ccc(-c2cc3cc4ccccc4cn3c2)cc1`, the T/C was 110 % of control under setting [2]; 118 % of control under setting [3]; 116 % of control under setting [4]; 105 % of control under setting [5]; 108 % of control (dose: 800.0 mg/kg/injection, vehicle: saline with Tween-80).

Turning to `COc1cccc2c1C(=O)c1c(O)c3c(c(O)c1C2=O)C[C@@](O)(C(=O)CO)C[C@@H]3OC1CC(N(C)C)C(O)C(C)O1` (stereo partly specified), the T/C was 100 % of control (dose: 0.12 mg/kg/injection, vehicle: saline); 152 % of control and 166 % of control (dose: 0.5 mg/kg/injection, vehicle: saline); 153 % of control and 205 % of control (dose: 1.0 mg/kg/injection, vehicle: saline); 172 % of control and 261 % of control (dose: 2.0 mg/kg/injection, vehicle: saline).

In the case of `O=C(O)CNC(=O)C(CSCc1ccccc1)NC(=O)OCc1ccccc1` (stereo unspecified), the T/C is, setting by setting: (dose: 50.0 mg/kg/injection, vehicle: Klucel (hydroxypropylcellulose) (HPC)) 95 % of control; under setting [2], 95 % of control; (dose: 100.0 mg/kg/injection, vehicle: Klucel (hydroxypropylcellulose) (HPC)) 107 % of control; under setting [3], 88 % of control; (dose: 200.0 mg/kg/injection, vehicle: Klucel (hydroxypropylcellulose) (HPC)) 102 % of control; under setting [4], 90 % of control.

On to `CCOC(=O)C(CC(C)C)NC(=O)C(N)Cc1ccc(N(CCCl)CCCl)cc1` (stereo unspecified), for which the T/C (dose: 1.25 mg/kg/injection, vehicle: water) is 113 % of control; the T/C (dose: 2.5 mg/kg/injection, vehicle: water) is 113 % of control and 102 % of control.

With `O=C(O)c1cc(C(=O)O)c(C(=O)O)cc1C(=O)O.[NH2-].[NH2-].[NH2-].[NH2-].[Pt+2].[Pt+2]`, the T/C by setting is: (dose: 0.12 mg/kg/injection, vehicle: water) 110 % of control; (dose: 0.25 mg/kg/injection, vehicle: water) 104 % of control; (dose: 0.5 mg/kg/injection, vehicle: water) 109 % of control and 110 % of control; (dose: 1.0 mg/kg/injection, vehicle: water) 114 % of control and 118 % of control; (dose: 8.0 mg/kg/injection, vehicle: water) 154 % of control.

In the case of `Nc1ncnc2c1ncn2C1OCC(O)C1O` (stereo unspecified), the T/C reads like this: under setting [6], 118 % of control; under setting [7], 121 % of control; under setting [9], 124 % of control.
